Source: PubChem BioAssay AID489040 (Sanford-Burnham Center for Chemical Genomics, 2010)
Activity calls are given as the source filed them.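 Rule for the calls: active = mean half-maximal activating concentration from the dose-response fit at or below a set limit; inactive = the rest.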

Biological target: CHO-XBP1 luciferase reporter, IRE1-XBP1 UPR activation
Experiment: activators of IRE1-XBP1 UPR arm, dose response, counter-screen for apoptotic UPR arm activators, CHO-XBP1 cells, luminescence (AID 489040);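 note: reporter read after six hours of compound exposure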

COC(=O)[C@@H]1[C@@H](C#N)C2(c3ccccc3-c3ccccc32)N(c2ccc(Cl)cc2)N1C#N
EC50: > 80 µM (inactive)

Cc1ccc2[nH]cc(C(=O)CCl)c2c1
EC50: > 80 µM (inactive)

Cc1cccnc1Nc1nc(-c2ccc(O)c(O)c2)cs1
EC50: inactive

O=C(Nc1nccs1)c1cccc(N2C(=O)c3cccc4c([N+](=O)[O-])ccc(c34)C2=O)c1
EC50: > 80 µM (inactive)

COc1ccc(CNC[C@@H](CCCCN(C)Cc2ccc(OC)cc2)N2C[C@H](c3ccccc3)N(CCc3ccc(Cl)c(Cl)c3)C(=O)C2=O)cc1
EC50: > 80 µM (inactive)

O=[N+]([O-])c1ccc(N/N=C/c2cccc(O)c2O)c(S(=O)(=O)N2CCOCC2)c1
EC50: inactive

FC(F)(F)c1nnc2c(Sc3ccc(Cl)cc3)nc3ccccc3n12
EC50: > 80 µM (inactive)

Oc1ccc(-c2nc(-c3ccc(O)c(O)c3)cs2)cc1
EC50: > 80 µM (inactive)

CC1=CC(C)(C)Nc2ccc(OC(=O)CN3C(=O)C4CCCCC4C3=O)cc21 (centres undefined)
EC50: > 80 µM (inactive)

Cc1ccc(C(=O)C(C(=O)/C=C/c2ccccc2)=C2SCCCS2)cc1
EC50: > 80 µM (inactive)

Cc1cc(-n2c(C)cc(C(=O)CCl)c2C)no1
EC50: > 80 µM (inactive)

COc1ccccc1-c1cc(C(F)(F)F)nc(S(=O)(=O)CCCC(=O)NCc2ccc(F)cc2)n1
EC50: > 80 µM (inactive)

Oc1ccc(CN2CCN(c3ccccc3)CC2)c2cccnc12
EC50: > 80 µM (inactive)

COC(=O)c1ccc(COc2ccccc2/C=C(\C#N)C(=O)Nc2c(C)cccc2C)cc1
EC50: inactive

COC(=O)c1cc(=O)n(CCc2ccc(OC)c(OC)c2)c(=Nc2ccc(F)c(Cl)c2)s1
EC50: > 80 µM (inactive)

O=C(Nc1cccc(S(=O)(=O)N2CCCCC2)c1)c1ccc([N+](=O)[O-])o1
EC50: > 80 µM (inactive)

Oc1ccc(-c2csc(-c3ccccc3)n2)cc1O
EC50: > 80 µM (inactive)

Cc1cc(C)nc(S/C=C/C(=O)c2ccccc2)n1
EC50: > 80 µM (inactive)

O=C(CCN1C(=O)C2C3C=CC(C4CC34)C2C1=O)Oc1cccc2cccnc12 (centres undefined)
EC50: > 80 µM (inactive)

CC1=CC(=O)C(C(C)C)=C/C1=N/OC(=O)c1cccc([N+](=O)[O-])c1
EC50: > 80 µM (inactive)

COc1cc(C(=O)Sc2ccc(Cl)cc2)cc(OC)c1OC
EC50: > 80 µM (inactive)

COc1cc(/C=C/C(=O)c2ccc3c(c2)OCCO3)cc(Br)c1OCC(=O)N(C)C
EC50: > 80 µM (inactive)

C/C(=N/NC(=O)c1ccc(C(C)(C)C)cc1)c1ccccn1
EC50: > 80 µM (inactive)

CCOC(=O)c1cnc(-n2nc(C)cc2C)nc1NC1CCCCC1
EC50: > 80 µM (inactive)

CCN(CC)S(=O)(=O)c1cc(NC(=O)Cn2ncc(Cl)c(Cl)c2=O)ccc1C
EC50: > 80 µM (inactive)

CCOc1cc(/C=C2/C(=O)ON=C2C)ccc1OCc1ccccc1F
EC50: > 80 µM (inactive)

N#CC(C#N)=C1C=CC=CN1/C(=C\c1ccccc1)C(=O)c1cccs1
EC50: > 80 µM (inactive)

COc1ccc(N=c2oc3c(OC)cccc3cc2C(=O)NCc2ccco2)cc1OC
EC50: > 80 µM (inactive)

Cc1ccccc1NC(=O)c1ccc(N/N=C/c2ccccc2O)c([N+](=O)[O-])c1
EC50: > 80 µM (inactive)

COc1cc(/C=C2\CC(C(C)(C)C)C/C(=C\c3cc(OC)c(OC)c(OC)c3)C2=O)cc(OC)c1OC (centres undefined)
EC50: > 80 µM (inactive)

COc1cccc2sc(N3CCN(c4nc5ccccc5s4)CC3)nc12
EC50: 18.7 µM

Cc1sc(NC(=O)c2cc(-c3ccc(Cl)cc3)nc3ccccc23)c(C(N)=O)c1C
EC50: 15.2 µM

Cn1c(=O)c2c(SCC(=O)Nc3ccccc3F)nc(-c3ccccc3F)nc2n(C)c1=O
EC50: 10.9 µM

COc1ccc(/C=C/C(=O)c2ccc(C(=O)/C=C/c3ccc(OC)c(OC)c3)cc2)cc1OC
EC50: > 80 µM (inactive)

COc1ccc(CCn2c(C)cc(C(=O)CCl)c2C)cc1OC
EC50: > 80 µM (inactive)

CCOC(=O)c1cnc(-n2nc(C)cc2C)nc1Nc1ccc(N(C)C)cc1
EC50: > 80 µM (inactive)

Cc1cc(N/N=C/c2ccccc2[N+](=O)[O-])nc(-n2nc(C)cc2C)n1
EC50: > 80 µM (inactive)

Cc1cccc(CSc2cccc3cccnc23)c1
EC50: > 80 µM (inactive)

O=C(C=C=Nc1ccccc1)C(=O)N=C=Cc1ccccc1
EC50: > 80 µM (inactive)

CSc1nnc(NC(=O)c2nc(S(=O)(=O)Cc3ccc(C)cc3)ncc2Cl)s1
EC50: > 80 µM (inactive)

CN(C)CC(CCC(CN(C)C)C(O)(c1ccccc1)c1ccccc1)C(O)(c1ccccc1)c1ccccc1 (centres undefined)
EC50: > 80 µM (inactive)

COc1ccc(N=Cc2c(O)c3ccccc3oc2=O)cc1
EC50: 11.6 µM

COc1cc(/C=C(/C#N)c2nc3ccccc3[nH]2)ccc1OCC(=O)Nc1ccccc1C(C)C
EC50: > 80 µM (inactive)

O=C1NC(=O)N(c2ccccc2)C(=O)/C1=C\C=C\c1ccccc1
EC50: > 80 µM (inactive)

O=Cc1ccc(O)c2ncccc12
EC50: > 80 µM (inactive)

O=C1NC(=O)N(Cc2ccccc2)C(=O)/C1=C\C=C\c1ccco1
EC50: > 80 µM (inactive)

COc1ccc2cc1Oc1ccc(cc1)CC1c3c(cc(OC)c4c3Oc3cc5c(cc3O4)CCNC5C2)CCN1C (centres undefined)
EC50: > 80 µM (inactive)

O=C1/C(=C/c2ccc(N3CCOCC3)o2)SC(=Nc2ccccc2)N1CCc1c[nH]c2ccccc12
EC50: > 80 µM (inactive)

O=S1(=O)Nc2c(ccc3cccnc23)-c2ccccc21
EC50: > 80 µM (inactive)

O=[N+]([O-])c1ccc(Sc2nnnn2-c2ccccc2)nc1
EC50: > 80 µM (inactive)

Cc1cc(C)c(C(CC(=O)c2cccs2)C(C#N)C#N)c(C)c1 (centres undefined)
EC50: > 80 µM (inactive)

Cc1cc(C(=O)CCl)c(C)n1CCc1ccc(Cl)cc1
EC50: > 80 µM (inactive)

Cc1ccc(-c2nn(-c3ccccc3)cc2C=C2C(=O)CC(C)(C)CC2=O)cc1
EC50: > 80 µM (inactive)

O=C(/C=C/Sc1ccc(C(F)(F)F)cn1)c1ccccc1
EC50: > 80 µM (inactive)

Oc1[nH]c2ccc(Br)cc2c1N=NC(=S)N1CCOCC1
EC50: > 80 µM (inactive)

O=[N+]([O-])c1cc(-c2ncccn2)c([N+](=O)[O-])s1
EC50: > 80 µM (inactive)

O=[N+]([O-])c1ccc(Sc2cccc3cccnc23)c([N+](=O)[O-])c1
EC50: > 80 µM (inactive)

O=C(Nc1ccc2oc(-c3ccncc3)nc2c1)c1ccc([N+](=O)[O-])o1
EC50: > 80 µM (inactive)

O=C(N/N=C/c1ccccn1)c1sc2ccccc2c1Cl
EC50: > 80 µM (inactive)

Cc1cccc(/C=C/C(=O)c2ccc([N+](=O)[O-])o2)c1
EC50: > 80 µM (inactive)

COc1cc(C(=O)Nc2nc(-c3ccc(Cl)cc3)c(C)s2)ccc1OCC(=O)Nc1ccc(F)cc1
EC50: > 80 µM (inactive)

COc1ccccc1N1C(=O)C=C(Sc2nc(C)cc(C)n2)C1=O
EC50: > 80 µM (inactive)

COc1ccc(C2=CC(=O)N(Nc3ccccc3)C2=O)cc1
EC50: > 80 µM (inactive)

Cc1nc([N+](=O)[O-])c(Br)n1CC(=O)c1ccc2ccccc2c1
EC50: > 80 µM (inactive)

COc1ccc(N=c2oc3ccc(OC)cc3cc2-c2nc3ccccc3[nH]2)cc1
EC50: 12.5 µM

CCc1cc2c(=O)[nH]c(-c3ccccn3)nc2s1
EC50: > 80 µM (inactive)

CCOC(=O)C1=C(Cc2ccc(Cl)cc2)C(=O)c2ccccc2C1=O
EC50: > 80 µM (inactive)

COc1cc(OC)cc(C(=O)NC(=S)Nc2cc3oc4ccccc4c3cc2OC)c1
EC50: > 80 µM (inactive)

C[C@@H](NC(=O)c1coc(=O)c(Br)c1)c1ccccc1
EC50: > 80 µM (inactive)

OCCNc1nc(Nc2ccc(Cl)c(Cl)c2)nc2ccccc12
EC50: > 80 µM (inactive)

CCOC(=O)c1cnc(Nc2nc3ccccc3o2)nc1CSC(=S)N1CCCCC1
EC50: 9.07 µM

COc1ccc(-c2cc3ccccc3oc2=O)cc1NC(=S)NC(=O)c1ccc2c(c1)OCCO2
EC50: 4.27 µM

CC(C)(C)c1ccc(/C=C(\c2nc3ccccc3[nH]2)S(=O)(=O)c2ccccc2)cc1
EC50: > 80 µM (inactive)

COc1ccc(-c2nc(-c3ccccc3)nc(Cl)c2C#N)cc1
EC50: inactive

Cc1ccc(C)c(C(=O)Cn2ncc(Cl)c(Cl)c2=O)c1
EC50: > 80 µM (inactive)

O=C(/C(=N/N=C/c1ccc(O)c(O)c1)c1ccccc1)c1ccccc1
EC50: > 80 µM (inactive)

CCCC[C@@H](C)C[C@@H](C)C(=O)N(C)[C@@H](CC(C)C)C(=O)N[C@H](C(=O)N(C)[C@H](C(=O)N1C[C@@H](O)C[C@H]1C(=O)N1C(=O)C=C[C@@H]1C)C(C)C)C(C)OC(C)=O (some centres undefined)
EC50: 15.6 µM

NC(N)=N/N=C/c1ccc(N(c2ccccc2)c2ccccc2)cc1
EC50: > 80 µM (inactive)

CC(=O)Oc1ccc(OC(C)=O)c(SCCCCCN2CCOCC2)c1
EC50: > 80 µM (inactive)

CCCCCCCCCn1c2c(c(=N)c3c1CCC3)CCCC2
EC50: inactive

COc1cc(C(=O)Oc2c(CN3CCOCC3)cc(Cl)c3cccnc23)cc(OC)c1OC
EC50: > 80 µM (inactive)

CN1CCN(Cc2cc(COCc3ccccc3)c3cccnc3c2O)CC1
EC50: inactive

COC(=O)c1c(NC(=O)c2ccc([N+](=O)[O-])o2)sc2c1CCN(C(C)C)C2
EC50: > 80 µM (inactive)

O=C(NCc1cccnc1)/C(=C/c1ccc(-c2ccc(Cl)cc2)o1)S(=O)(=O)c1ccccc1
EC50: > 80 µM (inactive)

O=[N+]([O-])c1ccc(C=Nc2ccc(Cl)cc2Cl)s1
EC50: > 80 µM (inactive)

Oc1c(C(c2ccccn2)N2CCC(Cc3ccccc3)CC2)cc(Cl)c2cccnc12 (centres undefined)
EC50: > 80 µM (inactive)

COC(=O)c1cc(=O)n(Cc2ccco2)c(=Nc2ccc(F)c(Cl)c2)s1
EC50: > 80 µM (inactive)

CC1=C(/C=C/C(C)=C/C=C/C(C)=C/C(=O)Nc2ccc(O)cc2)C(C)(C)CCC1
EC50: > 80 µM (inactive)

Cn1nc(C(F)(F)F)c(/C=N/OC(=O)c2ccccc2)c1SCc1ccccc1Cl
EC50: 6.11 µM

CN(/N=C\c1ccc(O)c(O)c1)c1nc(-c2ccccc2)cc(-c2ccccc2)n1
EC50: 4.96 µM

O=c1c2ccccc2nc(/C=C/c2ccc([N+](=O)[O-])o2)n1-c1ccc(O)cc1
EC50: > 80 µM (inactive)

Oc1c(C(Nc2ccccn2)c2ccccn2)ccc2cccnc12 (centres undefined)
EC50: > 80 µM (inactive)

Cc1ccc(C(=O)Oc2ccc(Cl)c3cccnc23)cc1[N+](=O)[O-]
EC50: > 80 µM (inactive)

Cc1nn(Cc2c(Cl)cccc2Cl)c(C)c1NC(=O)c1sc2ccccc2c1Cl
EC50: inactive
